Target: Glutamate NMDA receptor
Format: cell membranes, Rattus norvegicus, Wistar, Brain, Membrane
Description: Displacement of [3H]MK-801 from NMDA receptor in Wistar rat brain membranes by scintillation counting analysis

| SMILES | IC50 [µM] |
| --- | --- |
| NCCCCCCCCc1ccc(CCCCN)s1 | 0.43 |
| NCCOC(c1ccccc1)c1ccccc1 | 5.48 |
| N=C(N)c1ccc(N2CCCN(c3ccc(C(=N)N)cc3)CC2)cc1 | 0.35 |
| C[C@@H](CN)C(c1cccc(F)c1)c1cccc(F)c1 | 0.11 |
| NCCCC12CCC(c3ccccc31)c1ccccc12 | 7.44 |
| C[C@](N)(Cc1ccccc1)c1ccccc1 | 0.78 |
| CN[C@@]1(c2ccccc2Cl)CCCCC1=O | 2.12 |
| NCCCCCCCCCCCCN | 8.39 |
| NC(N)=NCCCCN=C(N)N [ARCAINE] | 6.39 |
| CN(C)CCCN1c2ccccc2Sc2ccc(Cl)cc21 [CHLORPROMAZINE] | 21 |
| CN[C@]1(c2ccccc2Cl)CCCCC1=O [ESKETAMINE] | 0.64 |
| NCCCN1c2ccccc2Sc2ccc(Cl)cc21 [NOR2-CHLORPROMAZINE] | 5.79 |
| c1ccc(C2(N3CCCCC3)CCCCC2)cc1 [PHENCYCLIDINE] | 0.11 |
| COC(=O)[C@@H](N)Cc1c[nH]c2ccccc12 [TRYPTOPHAN METHYL ESTER] | 169 |
